Measurements from US20040086901A1, “Database for analyzing gene function and method of analyzing gene function by dspa” (priority 2000, published 2004).

Experiments:
Type in all cases: cell-based, mouse
[1] = test system: NIH3T3 cells overexpressing p16/INK4A; experiment: MTT cell viability, p16/INK4A overexpressing cells vs parental line; conditions: p16/INK4A high-expressing cells / parental cell line, 3 to 4 days
Description: (§1) With regard to the function-known genes, the genes shown in the left column of Table 2 were used. With regard to the drugs, those shown in Table 1 were dissolved in DMSO to an extent of 100-fold of the maximum concentration for the search of the drugs and used. With regard to the cells, incubated NIH3T3 or ras-NIH3T3 cells were used.
(§2) Full-length cDNA of each function-known genes was incorporated into an expression vector (pRc-CMV, etc.) and transfected into NIH3T3 cells by a common method. Transformed cells were isolated using the resistance to G-418 as an index and the expression of the transfected gene in each cell was investigated by Western blotting method to select a highly expressing line.
(§3) Cell viabilities were measured according to the following procedures.
(§4) 1) From the 2nd to the 11th rows of a 96-well plate were filled with DMEM (50 μl). The 12th row was filled with 100 μl of DMEM.
(§5) 2) The 1st row was filled with 98 μl of DMEM.
(§6) 3) Drugs (2 μl each) were added into the 1st row.
(§7) 4) Continuous double-dilution was conducted from the 1st to the 9th rows. Fifty μl were taken out from the 9th row and discarded. The plate was preserved in a CO2 incubator.
(§8) 5) Cells (each high-expressing cells and the parental cell line) were detached from the medium using a trypsin solution, suspended in 10% CS-DMEM and transferred to a test tube and cell numbers (cell/ml) were counted.
(§9) 6) The cells were diluted to a concentration of 1×10^5 cells/ml, and 50 μl of the cell suspension were added to the 1st to the 11th rows of the plate followed by gently stirring.
(§10) 7) The plate was transferred to the CO2 incubator and incubated for 3 to 4 days.
(§11) 8) MTT (5 mg/ml in PBS) (10 μl) was added to the 1st to the 12th rows of the plate and incubated in the CO2 incubator at 37° C. for 4 hours.
(§12) 9) A reaction stop solution (0.04N HCl in isopropanol) (150 μl) was added followed by mixing well and being allowed to stand at room temperature for about 2 hours.
(§13) 10) Coloration of formazan which was a metabolite of the MTT dye was measured using a microplate reader. The measurement wavelength was 574 nm and the reference wavelength was 655 nm. The 10th and the 11th rows of the plate were 100% controls and the 12th row was a 0% control.
(§14) As an index for the sensitivity of highly gene-expressing cells and the parental cell line to various drugs, each of the IC40 values thereof was specified and ratios of the IC40 values were calculated. FIG. 2 and FIG. 3 are the examples where ratios of IC40 values were calculated from a curve showing the dependency on the concentration of the chemical versus the viability. After that, logarithmic values of ratios of IC40 values were calculated from each gene.

[2] = test system: NIH3T3 cells overexpressing PDGF-R-Del; experiment: MTT cell viability, PDGF-R-Del overexpressing cells vs parental line; conditions: PDGF-R-Del high-expressing cells / parental cell line, 3 to 4 days
Description: as §1, §2, §3, §4, §5, §6, §7, §8, §9, §10, §11, §12, §13, §14

[3] = test system: NIH3T3 cells overexpressing calpastatin; experiment: MTT cell viability, calpastatin overexpressing cells vs parental line; conditions: calpastatin high-expressing cells / parental cell line, 3 to 4 days
Description: as §1, §2, §3, §4, §5, §6, §7, §8, §9, §10, §11, §12, §13, §14

[4] = test system: NIH3T3 cells overexpressing cAMP-PK-CS; experiment: MTT cell viability, cAMP-PK-CS overexpressing cells vs parental line; conditions: cAMP-PK-CS high-expressing cells / parental cell line, 3 to 4 days
Description: as §1, §2, §3, §4, §5, §6, §7, §8, §9, §10, §11, §12, §13
(§15) As an index for the sensitivity of highly gene-expressing cells and the parental cell line to various drugs, each of the IC40 values thereof was specified and ratios of the IC40 values were calculated. […] After that, logarithmic values of ratios of IC40 values were calculated from each gene.

[5] = test system: NIH3T3 cells, TPA (PKC downreg); experiment: MTT cell viability, TPA (PKC downreg) cells vs parental line; conditions: 3 to 4 days
Description: as §1, §2, §3, §4, §5, §6, §7, §8, §9, §10, §11, §12, §13, §14

[6] = test system: NIH3T3 cells overexpressing PKCepsilon-KN; experiment: MTT cell viability, PKCepsilon-KN overexpressing cells vs parental line; conditions: 3 to 4 days
Description: as §1, §2, §3, §4, §5, §6, §7, §8, §9, §10, §11, §12, §13, §15

[7] = test system: NIH3T3 cells overexpressing N-ras; experiment: MTT cell viability, N-ras overexpressing cells vs parental line; conditions: N-ras high-expressing cells / parental cell line, 3 to 4 days
Description: as §1, §2, §3, §4, §5, §6, §7, §8, §9, §10, §11, §12, §13, §14

[8] = test system: NIH3T3 cells overexpressing ERK-DN; experiment: MTT cell viability, ERK-DN overexpressing cells vs parental line; conditions: ERK-DN high-expressing cells / parental cell line, 3 to 4 days
Description: as §1, §2, §3, §4, §5, §6, §7, §8, §9, §10, §11, §12, §13, §15

[9] = test system: NIH3T3 cells overexpressing Bax; experiment: MTT cell viability, Bax overexpressing cells vs parental line; conditions: 3 to 4 days
Description: as §1, §2, §3, §4, §5, §6, §7, §8, §9, §10, §11, §12, §13, §15

[10] = test system: NIH3T3 cells overexpressing JNK-DN; experiment: MTT cell viability, JNK-DN overexpressing cells vs parental line; conditions: JNK-DN high-expressing cells / parental cell line, 3 to 4 days
Description: as §1, §2, §3, §4, §5, §6, §7, §8, §9, §10, §11, §12, §13, §14

[11] = test system: NIH3T3 cells overexpressing HNF4; experiment: MTT cell viability, HNF4 overexpressing cells vs parental line; conditions: HNF4 high-expressing cells / parental cell line, 3 to 4 days
Description: as §1, §2, §3, §4, §5, §6, §7, §8, §9, §10, §11, §12, §13, §15

[12] = test system: NIH3T3 cells overexpressing PDGF-R; experiment: MTT cell viability, PDGF-R overexpressing cells vs parental line; conditions: PDGF-R high-expressing cells / parental cell line, 3 to 4 days
Description: as §1, §2, §3, §4, §5, §6, §7, §8, §9, §10, §11, §12, §13, §14

[13] = test system: NIH3T3 cells overexpressing CBP8; experiment: MTT cell viability, CBP8 overexpressing cells vs parental line; conditions: CBP8 high-expressing cells / parental cell line, 3 to 4 days
Description: as §1, §2, §3, §4, §5, §6, §7, §8, §9, §10, §11, §12, §13, §14

[14] = test system: NIH3T3 cells overexpressing STAT1; experiment: MTT cell viability, STAT1 overexpressing cells vs parental line; conditions: STAT1 high-expressing cells / parental cell line, 3 to 4 days
Description: as §1, §2, §3, §4, §5, §6, §7, §8, §9, §10, §11, §12, §13, §15

[15] = test system: NIH3T3 cells overexpressing Ki-ras; experiment: MTT cell viability, Ki-ras overexpressing cells vs parental line; conditions: Ki-ras high-expressing cells / parental cell line, 3 to 4 days
Description: as §1, §2, §3, §4, §5, §6, §7, §8, §9, §10, §11, §12, §13, §14

[16] = test system: NIH3T3 cells overexpressing Gluco-corticoid-R; experiment: MTT cell viability, Gluco-corticoid-R overexpressing cells vs parental line; conditions: Gluco-corticoid-R high-expressing cells / parental cell line, 3 to 4 days
Description: as §1, §2, §3, §4, §5, §6, §7, §8, §9, §10, §11, §12, §13, §15

[17] = test system: NIH3T3 cells overexpressing CaMKIIa-Active; experiment: MTT cell viability, CaMKIIa-Active overexpressing cells vs parental line; conditions: CaMKIIa-Active high-expressing cells / parental cell line, 3 to 4 days
Description: as §1, §2, §3, §4, §5, §6, §7, §8, §9, §10, §11, §12, §13, §14

[18] = test system: NIH3T3 cells overexpressing m-calpain; experiment: MTT cell viability, m-calpain overexpressing cells vs parental line; conditions: m-calpain high-expressing cells / parental cell line, 3 to 4 days
Description: as §1, §2, §3, §4, §5, §6, §7, §8, §9, §10, §11, §12, §13, §15

[19] = test system: NIH3T3 cells overexpressing HSP4O; experiment: MTT cell viability, HSP4O overexpressing cells vs parental line; conditions: HSP4O high-expressing cells / parental cell line, 3 to 4 days
Description: as §1, §2, §3, §4, §5, §6, §7, §8, §9, §10, §11, §12, §13, §14

[20] = PKCepsilon-KN (first of two lines) high-expressing cells / parental cell line
[21] = PKCepsilon-KN (second of two lines) high-expressing cells / parental cell line
[22] = Bax (first of two Bax lines) high-expressing cells / parental cell line
[23] = Bax (second of two Bax lines) high-expressing cells / parental cell line

SMILES: C=CC1=C(C)c2cc3[n-]c(cc4nc(cc5[n-]c(cc1n2)c(C)c5CCC(=O)O)C(CCC(=O)O)=C4C)c(C)c3C=C.[Cl-].[Cl-].[Sn+4] [SnPP]
- logarithmic value of ratio of IC40 values [1]: −0.05
- logarithmic value of ratio of IC40 values [2]: 0.08
- logarithmic value of ratio of IC40 values [3]: 0.486
- logarithmic value of ratio of IC40 values [4]: 0.02
- logarithmic value of ratio of IC40 values [5]: −0.20
- logarithmic value of ratio of IC40 values [6, 20]: 0.27
- logarithmic value of ratio of IC40 values [6, 21]: 0.24
- logarithmic value of ratio of IC40 values [7]: 0.14
- logarithmic value of ratio of IC40 values [8]: 0.00
- logarithmic value of ratio of IC40 values [9, 22]: 0.17
- logarithmic value of ratio of IC40 values [9, 23]: 0.10
- logarithmic value of ratio of IC40 values [10]: −0.11
- logarithmic value of ratio of IC40 values [11]: 0.46
- logarithmic value of ratio of IC40 values [12]: −0.07
- logarithmic value of ratio of IC40 values [13]: 0.56
- logarithmic value of ratio of IC40 values [14]: 0.08
- logarithmic value of ratio of IC40 values [15]: 0.18
- logarithmic value of ratio of IC40 values [16]: 0.00
- logarithmic value of ratio of IC40 values [17]: 0.30
- logarithmic value of ratio of IC40 values [18]: −0.07
- logarithmic value of ratio of IC40 values [19]: 0.28

SMILES: CO[C@H]1[C@@H](OC)C[C@H](C)[C@@H](OC)C2=CC(=O)C=C(NC(=O)/C(C)=C/C=C\[C@H](OC)[C@@H](OC(N)=O)/C(C)=C/[C@@H]1C)C2=O [HMA, herbimycin A]
- logarithmic value of ratio of IC40 values [1]: 0.41
- logarithmic value of ratio of IC40 values [2]: 0.00
- logarithmic value of ratio of IC40 values [3]: −0.14
- logarithmic value of ratio of IC40 values [4]: 0.12
- logarithmic value of ratio of IC40 values [5]: −0.07
- logarithmic value of ratio of IC40 values [6, 20]: −0.11
- logarithmic value of ratio of IC40 values [6, 21]: 0.09
- logarithmic value of ratio of IC40 values [7]: 0.43
- logarithmic value of ratio of IC40 values [8]: 0.00
- logarithmic value of ratio of IC40 values [9, 22]: −0.05
- logarithmic value of ratio of IC40 values [9, 23]: 0.15
- logarithmic value of ratio of IC40 values [10]: −0.14
- logarithmic value of ratio of IC40 values [11]: −0.08
- logarithmic value of ratio of IC40 values [12]: 0.19
- logarithmic value of ratio of IC40 values [13]: 0.09
- logarithmic value of ratio of IC40 values [14]: −0.05
- logarithmic value of ratio of IC40 values [15]: −0.14
- logarithmic value of ratio of IC40 values [16]: −0.11
- logarithmic value of ratio of IC40 values [17]: 0.51
- logarithmic value of ratio of IC40 values [18]: 0.00
- logarithmic value of ratio of IC40 values [19]: 0.00
